Molecular target: Serine/threonine-protein phosphatase PP1-alpha catalytic subunit (Homo sapiens) (UniProt P62136)
Assay: dose-dependent PP1 inhibition, physiologic substrate – biochemical, radiolabel, phosphorylase substrate, powder samples, orthogonal assay for PP1 inhibitor probe project, dose response (AID 652112)
Settings: purified PP1, 32P/33P-phosphorylase dephosphorylation, scintillation

Chain of Serine/threonine-protein phosphatase PP1-alpha catalytic subunit (Homo sapiens) (P62136 whole entry, looked up): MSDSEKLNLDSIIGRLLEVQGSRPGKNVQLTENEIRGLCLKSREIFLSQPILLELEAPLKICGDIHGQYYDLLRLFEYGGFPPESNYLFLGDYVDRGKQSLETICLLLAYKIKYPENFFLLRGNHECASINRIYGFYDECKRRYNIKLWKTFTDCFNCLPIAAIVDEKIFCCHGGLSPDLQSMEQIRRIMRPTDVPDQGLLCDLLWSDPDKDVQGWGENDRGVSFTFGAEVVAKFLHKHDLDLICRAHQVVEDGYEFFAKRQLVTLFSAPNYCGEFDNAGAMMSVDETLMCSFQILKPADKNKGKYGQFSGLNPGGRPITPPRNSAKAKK

**Q.** `N#Cc1c(-c2ccc(Cl)cc2)cc(-c2cccs2)nc1SCC(=O)O` was tested. Which IC50 did it give?
**A.** 21.9 µM

**Q.** Which IC50 does the source give for `CCn1c2ccccc2c2cc(NC(=O)COC(=O)c3ccc(NC(=O)CC#N)cc3)ccc21` here?
**A.** 38 µM

**Q.** `CN1CCN(C(c2ccccn2)c2cc(Cl)c3cccnc3c2O)CC1` (stereo not given) was tested. Which IC50 did it give?
**A.** 4.89 µM

**Q.** `CCOC(=O)c1sc2nc3c(SCC(=O)O)cc(C(=O)c4cc(F)ccc4O)cn3c(=O)c2c1C` was tested. Which IC50 did it give?
**A.** 8.54 µM

**Q.** Which IC50 does the source give for `COc1ccc(NC(=O)C2C3CCC(O3)C2C(=O)O)c(OC)c1` (stereo not given) here?
**A.** 18.9 µM

From PubChem BioAssay AID652112 (The Scripps Research Institute Molecular Screening Center, 2013)
